Test results published in patent US8779195B2, “Polyamine derivatives” (Nihon University, priority 2006, dated 2014).
Structures can show the parent of a compound that is named as a salt. Where two headings read alike, the source gives them in different places.

Key:
NMDA receptor NR1/NR2A = NMDA receptor NR1/NR2A (Rattus norvegicus, UniProt P35439+Q00959); experiment: two-electrode voltage clamp, NMDA receptor activity inhibition in Xenopus oocytes (NR1/NR2A); format: cell-based
Description: (§1) To confirm pharmacological function of TsPD, TsPDG, TsSPMG, BsPDG, and Tosyl-SPM synthesized above (synthesized by the method described in Patent Document 1 mentioned above), the effect of these compounds on NMDA receptor was measured by a two-electrode voltage clamp method.
(§2) This method can be carried out in accordance with the method of Masuko et al. (Masuko T. et al., Mol. Pharmacol. 55: 957-969 (1999); Masuko T. et al., Nuerosci. Lett. 371: 30-33 (2004); Masuko T. et al., Chem. Pharm. Bull. 53 (4) 444-447 (2005)). To the oocyte, cRNAs of an NR1 subunit and an NR2 subunit of NMDA receptor were injected in a ratio of 1:5 (NR1: 0.1 to 4 ng, NR2: 0.5 to 20 ng) to obtain the oocyte in which NMDA receptor was expressed.
(§3) The oocytes were cultured in a medium (96 mM NaCl, 2 mM KCl, 1 mM MgCl2, 1.8 mM CaCl2, 5 mM Na-HEPES, 2.5 mM sodium pyruvate, 50 μg/ml gentamicin, pH=7.5) at 19° C. for 1 to 3 days.
(§4) At the measurement date, K^+-BAPTA was injected in the oocytes and then, the activity of the receptors was measured by the two-electrode voltage clamp method (described later) using a recording buffer (96 mM NaCl, 2 mM KCl, 1.8 mM BaCl2, 10 mM Na-HEPES, pH=7.5).
(§5) Note that there is a single type of gene in NR1 and 4 types of genes, namely NR2A to NR2D, in NR2. There are NR1/NR2A, NR1/NR2B, NR1/NR2C and NR1/NR2D subtypes in NMDA receptor. However, NR1/NR2A and NR1/NR2B subtypes are conceivably present widely in the brain. Therefore, the activity inhibitory effects on these two types were measured in the following experiments.
(§6) The two-electrode voltage clamp method was carried out in accordance with the method of Williams et al. (Williams, K. et al., Mol. Pharmacol 38: 85-108). The current flowing through the entire membrane of the oocyte was measured by an amplifier CEZ-1250 (Nihon Kohden Corporation) for the two-electrode voltage clamp method. The electrode was filled with 3M potassium chloride and the resistance was set at 0.4 to 4 MΩ. In measurement, glutamate and glycine were added as NMDA agonists.
(§7) To the oocytes obtained by the aforementioned method, various concentrations of TsPD, TsPDG, TsSPMG, BsPDG and Tosyl-SPM were added. The activity inhibitory effect on […] subtypes was measured at a fixed voltage (Vh) of −70 mV (resting membrane potential).
(§8) As a comparative example, the same measurement is performed by use of Dansyl-SPM represented by the aforementioned formula (III).
(§9) Values obtained from 4 to 5 oocytes were averaged. The average value±S.E.M. was regarded as a measurement value.

NMDA receptor NR1/NR2B = NMDA receptor NR1/NR2B (Rattus norvegicus, UniProt P35439+Q00960); experiment: two-electrode voltage clamp, NMDA receptor activity inhibition in Xenopus oocytes (NR1/NR2B); format: cell-based
NMDA receptor NR1/NR2B, sequence (Q00960 27-1482, other chains not shown): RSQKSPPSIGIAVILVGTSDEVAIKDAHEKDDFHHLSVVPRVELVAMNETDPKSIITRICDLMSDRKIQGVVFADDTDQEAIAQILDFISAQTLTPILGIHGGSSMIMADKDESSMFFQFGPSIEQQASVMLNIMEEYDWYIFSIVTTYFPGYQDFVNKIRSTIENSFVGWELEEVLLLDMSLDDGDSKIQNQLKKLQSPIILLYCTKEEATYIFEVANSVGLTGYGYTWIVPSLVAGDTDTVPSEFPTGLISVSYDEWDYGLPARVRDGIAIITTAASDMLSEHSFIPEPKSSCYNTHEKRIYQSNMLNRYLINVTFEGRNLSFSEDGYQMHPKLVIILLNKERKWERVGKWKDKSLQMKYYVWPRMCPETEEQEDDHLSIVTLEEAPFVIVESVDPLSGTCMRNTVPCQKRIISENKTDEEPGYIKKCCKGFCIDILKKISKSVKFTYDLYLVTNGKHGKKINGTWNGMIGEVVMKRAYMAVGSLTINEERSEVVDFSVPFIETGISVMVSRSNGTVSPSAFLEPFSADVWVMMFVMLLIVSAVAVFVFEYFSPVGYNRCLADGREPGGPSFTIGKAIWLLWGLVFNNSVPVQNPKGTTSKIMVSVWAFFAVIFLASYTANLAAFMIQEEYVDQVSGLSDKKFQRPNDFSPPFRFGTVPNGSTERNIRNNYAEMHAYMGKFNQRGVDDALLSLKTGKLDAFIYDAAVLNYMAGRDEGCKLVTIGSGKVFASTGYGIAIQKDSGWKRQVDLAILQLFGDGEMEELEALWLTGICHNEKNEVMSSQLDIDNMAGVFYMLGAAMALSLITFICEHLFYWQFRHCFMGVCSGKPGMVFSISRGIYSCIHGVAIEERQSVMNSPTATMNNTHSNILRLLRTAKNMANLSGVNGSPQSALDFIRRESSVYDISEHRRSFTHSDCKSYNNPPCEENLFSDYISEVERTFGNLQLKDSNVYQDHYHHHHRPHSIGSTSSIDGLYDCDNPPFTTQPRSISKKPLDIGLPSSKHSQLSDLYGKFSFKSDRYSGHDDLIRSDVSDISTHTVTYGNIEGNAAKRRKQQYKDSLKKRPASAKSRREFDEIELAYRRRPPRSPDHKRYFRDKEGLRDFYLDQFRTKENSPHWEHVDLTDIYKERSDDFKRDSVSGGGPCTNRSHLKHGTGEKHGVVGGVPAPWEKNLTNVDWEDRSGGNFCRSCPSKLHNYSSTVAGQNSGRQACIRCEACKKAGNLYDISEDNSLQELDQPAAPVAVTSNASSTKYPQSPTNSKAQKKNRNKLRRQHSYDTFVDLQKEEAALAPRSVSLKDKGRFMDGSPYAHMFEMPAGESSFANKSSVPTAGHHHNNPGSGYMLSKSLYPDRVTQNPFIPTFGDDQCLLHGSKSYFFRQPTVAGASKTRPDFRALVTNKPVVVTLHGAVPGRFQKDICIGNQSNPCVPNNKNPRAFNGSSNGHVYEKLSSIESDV
Description: as §1, §2, §3, §4, §5, §6, §7, §8, §9

[1] = cytotoxicity test, Alamar blue assay; format: cell-based; conditions: human, 24 hours exposure, read-out: IC50 (concentration at which respiratory activity is 50%)
Description: A cytotoxicity test was carried out with respect to TsPD, TsPDG, TsSPMG, BsPDG and Tosyl-SPM. Also in this test, Dansyl-SPM was used in a comparative example.
SH-SY5Y neuroblastoma cell line was purchased from the American Type Culture Collection. The cells were cultured in a D-MEM medium to which penicillin (100 U/ml), streptomycin (100 U/ml) and inactivated fetal bovine serum (Gibco) were added. The cells were maintained in a CO2 incubator at 37° C. and kept under the condition of 95% air and 5% CO2.
Undifferentiated SH-SY5Y cells were exposed to various concentrations of polyamine derivatives for 24 hours. An Alamar blue stock solution was transferred to a 96 well plate. The final assay volume was set at 100 μl/well and the final concentration of the Alamar blue was set at 10%. Six hours later, reduced Alamar blue was measured at a wavelength of 570 nm (FIG. 3). A survival rate (%) of the cells exposed to a polyamine derivative for 24 hours was expressed by a relative value of respiratory activity of the cells based on respiratory activity (100%) of mitochondria of the cells to which no drug is added.

[2] = tested on: Rat hippocampal primary culture cells; experiment: protective effect against nerve cell death induced by glutamate (lactate dehydrogenase release); format: cell-based; conditions: glutamate exposure one hour, LDH release after 24 hours
Description: (§10) Next, the protective effect of polyamine derivatives against nerve cell death due to excitotoxicity was investigated. Rat hippocampal primary culture cells were cultured for seven days and exposed to glutamate or NMDA for one hour. Nerve cell death induced in this manner was evaluated based on lactate dehydrogenase release after 24 hours as an index, significant cell death was observed. In addition, it was observed that nerve cell death caused by glutamate and NMDA exposure has concentration dependency.

[3] = tested on: Rat hippocampal primary culture cells; experiment: protective effect against nerve cell death induced by NMDA (lactate dehydrogenase release); format: cell-based; conditions: NMDA exposure one hour, LDH release after 24 hours
Description: as §10

[4] = tested on: mouse convulsion induced by NMDA; experiment: suppression of NMDA-induced convulsion in mouse (permeability through the blood brain barrier); format: in vivo
Description: Polyamine derivatives according to the present invention were evaluated for permeability through the blood brain barrier.
When 100 mg/kg NMDA was injected into a mouse abdominal cavity, convulsion is induced several minutes later. Then, the convulsion suppression effect of a polyamine derivative on mouse convulsion induced by NMDA was investigated.
When 0.5 mg/kg TsPDG and BsPDG were intravenously administered into a mouse 30 minutes before NMDA injection, the time of convulsion induced by NMDA was reduced by 43% and 39%. This reduction rate of convulsion time was equivalent to that (38%) when 10 mg/kg memantine intravenously administered.

NMDA receptor = conditions: read-out: IC50 of memantine (NMDA receptor); cited from earlier work
[5] = Xenopus oocytes, Vh -70 mV, glutamate and glycine as agonists, mean ± S.E.M. of 4 to 5 oocytes, read-out: IC50 NR1/NR2A
[6] = Xenopus oocytes, Vh -70 mV, glutamate and glycine as agonists, mean ± S.E.M. of 4 to 5 oocytes, read-out: IC50 NR1/NR2B
[7] = 0.5 mg/kg intravenously 30 minutes before 100 mg/kg NMDA i.p.
[8] = undifferentiated SH-SY5Y neuroblastoma cells

NMDA receptor NR1/NR2A, sequence (Q00959 23-1464, other chains not shown): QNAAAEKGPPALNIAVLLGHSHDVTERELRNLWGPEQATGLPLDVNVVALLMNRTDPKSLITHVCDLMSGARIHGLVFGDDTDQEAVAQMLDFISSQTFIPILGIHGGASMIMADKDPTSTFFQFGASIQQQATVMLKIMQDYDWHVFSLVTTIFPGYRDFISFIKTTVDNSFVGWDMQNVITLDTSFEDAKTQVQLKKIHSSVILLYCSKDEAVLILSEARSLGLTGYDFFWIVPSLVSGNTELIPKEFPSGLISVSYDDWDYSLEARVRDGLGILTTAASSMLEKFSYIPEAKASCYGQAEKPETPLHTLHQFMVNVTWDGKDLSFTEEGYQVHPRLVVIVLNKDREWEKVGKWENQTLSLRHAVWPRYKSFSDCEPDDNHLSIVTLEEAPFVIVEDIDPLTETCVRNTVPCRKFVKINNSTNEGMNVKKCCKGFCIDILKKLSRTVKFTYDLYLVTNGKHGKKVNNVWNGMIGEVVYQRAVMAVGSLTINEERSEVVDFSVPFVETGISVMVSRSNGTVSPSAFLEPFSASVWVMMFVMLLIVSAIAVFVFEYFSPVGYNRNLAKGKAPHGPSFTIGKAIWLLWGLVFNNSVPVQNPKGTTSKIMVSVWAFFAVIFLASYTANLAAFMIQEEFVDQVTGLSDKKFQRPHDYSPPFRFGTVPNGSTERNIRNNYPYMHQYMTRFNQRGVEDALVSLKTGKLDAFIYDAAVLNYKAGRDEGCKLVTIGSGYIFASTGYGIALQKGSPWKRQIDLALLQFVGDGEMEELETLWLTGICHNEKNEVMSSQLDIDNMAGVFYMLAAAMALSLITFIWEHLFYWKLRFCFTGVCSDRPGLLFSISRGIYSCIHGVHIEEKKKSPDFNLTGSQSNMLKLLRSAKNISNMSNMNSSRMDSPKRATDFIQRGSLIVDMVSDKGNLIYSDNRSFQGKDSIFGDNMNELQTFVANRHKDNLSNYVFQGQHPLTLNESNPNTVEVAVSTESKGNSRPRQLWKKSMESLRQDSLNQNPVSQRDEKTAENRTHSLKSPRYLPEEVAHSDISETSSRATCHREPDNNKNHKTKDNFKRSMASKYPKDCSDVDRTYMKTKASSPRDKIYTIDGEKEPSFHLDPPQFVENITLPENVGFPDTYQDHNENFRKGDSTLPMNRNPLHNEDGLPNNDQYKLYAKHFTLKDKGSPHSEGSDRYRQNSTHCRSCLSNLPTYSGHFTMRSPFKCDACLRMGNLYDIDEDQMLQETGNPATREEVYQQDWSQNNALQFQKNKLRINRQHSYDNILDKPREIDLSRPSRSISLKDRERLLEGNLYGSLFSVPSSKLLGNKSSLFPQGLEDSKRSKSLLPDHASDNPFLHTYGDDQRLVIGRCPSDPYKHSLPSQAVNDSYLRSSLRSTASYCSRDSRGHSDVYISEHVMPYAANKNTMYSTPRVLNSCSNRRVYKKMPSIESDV

Row | Structure (SMILES) | IC50 (NMDA receptor NR1/NR2A; [5]) [µM] | IC50 (NMDA receptor NR1/NR2B; [6]) [µM] | IC50 at 24 h ([1]; undifferentiated SH-SY5Y cells) [µM] | further results
1 | Cc1ccc(S(=O)(=O)NCCCCNCCCCNCCCCN)cc1 [TsPD] | 0.074 ± 0.003 | 0.15 ± 0.001 | 1830 ± 46 | suppression of nerve cell death induced by glutamate ([2]; 10 μM compound): significantly suppressed; suppression of nerve cell death induced by NMDA ([3]; 10 μM compound): completely suppressed
2 | Cc1ccc(S(=O)(=O)NCCCCNCCCCNCCCCNC(=N)N)cc1 [TsPDG] | – | – | 2870 ± 66 | IC50 (NMDA receptor NR1/NR2A): 0.017 ± 0.002 µM; IC50 (NMDA receptor NR1/NR2B): 0.027 ± 0.002 µM; suppression of nerve cell death induced by glutamate ([2]; 1 μM compound): significantly suppressed; suppression of nerve cell death induced by NMDA ([3]; 1 μM compound): completely suppressed; reduction of the time of convulsion induced by NMDA [4, 7]: 43%
3 | Cc1ccc(S(=O)(=O)NCCCNCCCCNCCCN)cc1 [Tosyl-SPM, N^1-Tosyl-Spermine, reference compound] | 0.35 ± 0.01 | 0.4 ± 0.01 | – | IC50 at 24 h [1, 8]: 336 ± 7 µM
4 | CC12CC3CC(C)(C1)CC(N)(C3)C2 [memantine, memantine hydrochloride, reference compound] | – | – | – | reduction of the time of convulsion induced by NMDA ([4]; 10 mg/kg intravenously): 38%; IC50 (NMDA receptor): 1 µM
5 | CN(C)c1cccc2c(S(=O)(=O)NCCCNCCCCNCCCN)cccc12 [Dansyl-SPM, N^1-Dansyl-Spermine, reference compound] | 0.27 ± 0.03 | 0.31 ± 0.03 | – | IC50 at 24 h [1, 8]: 30 ± 1 µM
6 | Cc1ccc(S(=O)(=O)NCCCNCCCCNCCCNC(=N)N)cc1 [TsSPMG] | 0.32 ± 0.03 | 0.37 ± 0.05 | 2640 ± 37 | –
7 | CCCCS(=O)(=O)NCCCCNCCCCNCCCCNC(=N)N [BsPDG] | 0.015 ± 0.001 | 0.024 ± 0.003 | > 3000 | suppression of nerve cell death induced by glutamate ([2]; 1 μM compound): significantly suppressed; suppression of nerve cell death induced by NMDA ([3]; 1 μM compound): completely suppressed; reduction of the time of convulsion induced by NMDA [4, 7]: 39%
